Laboratory results from the supplement of paper PMC11821682.

Legend:
[1] = system: Danio rerio embryo; experiment: LEL larval photomotor response dark phase 120 hpf
Method: (§1)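 ZBEscreen: dechorionated Tropical 5D zebrafish embryos were exposed from 4 hpf in 96-well plates (1% DMSO, 28 °C). All compounds were first tested at 100 µM; hits were retested at 0.005-100 µM. Morphology and mortality were scored at 120 hpf and fitted as BMC10 (3-parameter log-logistic, extra risk). The embryonic photomotor response at 24 hpf and the larval photomotor response at 120 hpf are given as lowest effect levels (K-S test, p<0.01). NA = not significant up to 100 µM; NT = not tested.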

[2] = system: Danio rerio embryo; experiment: BMC10 mortality 24-120 hpf; higher = less toxic
Method: as §1

[3] = system: Danio rerio embryo; experiment: LEL embryonic photomotor response 24 hpf
Method: as §1

[4] = system: Danio rerio embryo; experiment: BMC10 any morphological effect or mortality at 120 hpf; higher = less toxic
[5] = system: HL-60; experiment: Cell Health Index (toxicity pseudo-probability over dose series) (index 0-1); higher = more cytotoxic / cell stress;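 also: HL-60 cells exposed 4 h at 37 °C to ten threefold dilutions spanning 5 nM to 100 µM, multiparametric flow cytometry features scored by machine-learning classification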

SMILES | LEL larval photomotor response dark phase 120 hpf [1] | BMC10 mortality 24-120 hpf [2] | LEL embryonic photomotor response 24 hpf [3] | BMC10 any morphological effect or mortality [4] | Cell Health Index [5]
CC(=O)c1cc([N+](=O)[O-])c(Sc2cccc(Cl)c2Cl)s1 | > 100 µM | 27.7 µM | > 100 µM | 0.246 µM | 0.789
O=c1cc(-c2cccc3c2Sc2ccccc2S3)oc(N2CCOCC2)c1 | > 100 µM | 9.46 µM | 11.1 µM | 5.74 µM | 0.663
Cl.Cl.OCCOCCN1CCN(Cc2cccc(Oc3ccccc3)c2)CC1 | 33.3 µM | 43.1 µM | 33.3 µM | 36.5 µM | 0.385
COc1ccc2c(c1)CC[C@@H]1[C@@H]2CC[C@]2(C)[C@@H](NCCCCCCN3C(=O)C=CC3=O)CC[C@@H]12 | > 100 µM | 0.101 µM | 11.1 µM | 0.134 µM | 0.348
CO[C@H]1O[C@@H]2O[C@@]3(C)CC[C@H]4[C@H](C)CC[C@@H]([C@H]1C)[C@@]24OO3 [Artemether] | 0.41 µM |  | 11.1 µM | 3.55 µM | 0.289
C[C@@H]1CC[C@H]2[C@@H](C)C(=O)O[C@@H]3O[C@@]4(C)CC[C@@H]1[C@]32OO4 [Artemisinin] | 3.7 µM |  | 33.3 µM | 39.4 µM | 0.169
C=C[C@@H]1C[C@]1(NC(=O)[C@@H]1C[C@H](Oc2ncc(OC)c3ccc(Cl)cc23)CN1C(=O)[C@@H](NC(=O)OC(C)(C)C)C(C)(C)C)C(=O)NS(=O)(=O)C1CC1 [Asunaprevir] | 3.7 µM |  | 11.1 µM | > 100 µM | 0.536
CC(=O)O/N=C1/C(=C2\C(=O)Nc3cc(Br)ccc32)Nc2ccccc21 [BIO-Acetoxime] | 33.3 µM |  | > 100 µM | > 100 µM | 0.715
O=c1cc(-c2ccccc2)oc2cc(O)c(O)c(O)c12 [Baicalein] | > 100 µM |  | > 100 µM | > 100 µM | 0.551
C=C(C)[C@@H]1CC[C@]2(C(=O)O)CC[C@]3(C)[C@H](CC[C@@H]4[C@@]5(C)CC[C@H](O)C(C)(C)[C@@H]5CC[C@]43C)[C@@H]12 [Betulinic acid] | 100 µM |  | > 100 µM | > 100 µM | 0.4
C[C@H]1CO[C@@H]2Cn3cc(C(=O)NCc4ccc(F)cc4F)c(=O)c(O)c3C(=O)N12 [Cabotegravir] | > 100 µM |  | > 100 µM | > 100 µM | 0.321
OC[C@H]1O[C@@H](O[C@@H]2OC=C[C@H]3[C@H](O)[C@@H]4O[C@]4(CO)[C@@H]23)[C@H](O)[C@@H](O)[C@@H]1O [Catalpol] | > 100 µM |  | > 100 µM | > 100 µM | 0.184
